According to ChEMBL document CHEMBL5338757, “Phototunable Cell Killing by Photochromic Diarylethene of Thiazoyl and Thienyl Derivatives” (J Med Chem, 2023):
One block for each molecule: values may come before it. Active and inactive are the calls of the source. No cut-off for these calls is given here.

Key:
HeLa [1] = assay: Phototoxicity against human HeLa cells assessed as cell death at 0.02 to 5 ppm preincubated for 18 hrs under dark condition followed by medium replacement and 436 nm blue light irradiation for 2 mins and measured after 2 hrs by microscopic analysis; type: functional, cell-based; conditions: dose 0.02-5 ppm, time 20.03 hrs
DNA [2] = assay: Binding affinity to DNA (unknown origin) assessed as redshift in absorption maxima at 15 uM with […] blue light irradiation incubated for 24 hrs by fluorescence based assay; type: nucleic-acid assay
DNA [3] = assay: Binding affinity to DNA (unknown origin) at 15 uM with 436 nm blue light irradiation incubated for 24 hrs by fluorescence based assay; type: nucleic-acid assay
DNA [4] = assay: Binding affinity to DNA (unknown origin) upto 25 uM incubated for 24 hrs in presence of ethidium bromide by […]; type: nucleic-acid assay
HeLa [5] = assay: Phototoxicity against human HeLa cells assessed as cell death at 0.05 ppm incubated for 18 hrs followed by medium replacement and 436 nm blue light irradiation for 2 mins and measured after 2 hrs by microscopic analysis; type: functional, cell-based
HeLa [6] = assay: Phototoxicity against human HeLa cells assessed as cell death at 5 ppm incubated for 18 hrs followed by medium replacement and 436 nm blue light irradiation for 2 mins and measured after 2 hrs by microscopic analysis; type: functional, cell-based; conditions: time 20.03 hrs
HeLa [7] = assay: Phototoxicity against human HeLa cells assessed as ATM kinase activation at 1 ppm with 365 and 436 nm light irradiation by Western blot analysis; type: functional, cell-based
HeLa [8] = assay: Phototoxicity against human HeLa cells assessed as gamma-H2AX activation at 1 ppm with 365 and 436 nm light irradiation by Western blot analysis; type: functional, cell-based
HeLa [9] = assay: Phototoxicity against human HeLa cells assessed as BAX activation at 1 ppm with 365 and 436 nm light irradiation by Western blot analysis; type: functional, cell-based
HeLa [10] = assay: Phototoxicity against human HeLa cells assessed as BAK activation at 1 ppm with 365 and 436 nm light irradiation by Western blot analysis; type: functional, cell-based
HeLa [11] = assay: Phototoxicity against human HeLa cells assessed as cleaved caspase-3 activation at 1 ppm with 365 and 436 nm light irradiation by Western blot analysis; type: functional, cell-based; conditions: time 18.0 hrs
DNA [12] = assay: Binding affinity to DNA (unknown origin) in aqueous media at 15 uM at 436 nm blue light irradiation incubated for 24 hrs by fluorescence based assay; type: nucleic-acid assay
DNA [13] = assay: Binding affinity to DNA (unknown origin) in aqueous media at 15 uM with 436 nm blue light irradiation incubated for 24 hrs by CD spectra analysis; type: nucleic-acid assay
DNA [14] = assay: Binding affinity to DNA (unknown origin) in aqueous media at 15 uM with > 546 nm blue light irradiation incubated for 24 hrs by CD spectra analysis; type: nucleic-acid assay
HeLa [15] = assay: Phototoxicity against human HeLa cells assessed as cell death at 0.5 ppm preincubated for 1 day followed by UV irradiation for 20 sec; type: functional, cell-based; conditions: time 86420.0 sec
HeLa [16] = assay: Phototoxicity against human HeLa cells assessed as cell shrinkage at 1 nM preincubated for 18 hrs under dark condition followed by medium replacement and 436 nm blue light irradiation for 2 mins and measured after 2 hrs by microscopic analysis; type: functional, cell-based; conditions: time 20.03 hrs
HeLa [17] = assay: Phototoxicity against human HeLa cells assessed as cell rounding at 1 nM preincubated for 18 hrs under dark condition followed by medium replacement and 436 nm blue light irradiation for 2 mins and measured after 2 hrs by microscopic analysis; type: functional, cell-based; conditions: time 20.03 hrs
HeLa [18] = assay: Phototoxicity against human HeLa cells assessed as ATM kinase activation at 0.1 ppm with 436 nm blue light irradiation by Western blot analysis; type: functional, cell-based; conditions: time 20.03 hrs
HeLa [19] = assay: Phototoxicity against human HeLa cells assessed as gamma-H2AX activation at 0.1 ppm with 436 nm blue light irradiation by Western blot analysis; type: functional, cell-based; conditions: time 20.03 hrs
HeLa [20] = assay: Phototoxicity against human HeLa cells assessed as CHK1 activation at 0.1 ppm with 436 nm blue light irradiation by Western blot analysis; type: functional, cell-based; conditions: time 20.03 hrs
HeLa [21] = assay: Phototoxicity against human HeLa cells assessed as CHK2 activation at 0.1 ppm with 436 nm blue light irradiation by Western blot analysis; type: functional, cell-based; conditions: time 20.03 hrs
HeLa [22] = assay: Phototoxicity against human HeLa cells assessed as BAX activation at 0.1 ppm with 436 nm blue light irradiation by Western blot analysis; type: functional, cell-based; conditions: time 20.03 hrs
HeLa [23] = assay: Phototoxicity against human HeLa cells assessed as BAK activation at 0.1 ppm with 436 nm blue light irradiation by Western blot analysis; type: functional, cell-based; conditions: time 20.03 hrs
HeLa [24] = assay: Phototoxicity against human HeLa cells assessed as caspase-3 activation at 0.1 ppm with 436 nm blue light irradiation by Western blot analysis; type: functional, cell-based; conditions: time 20.03 hrs
HeLa [25] = assay: Phototoxicity against human HeLa cells assessed as activation of BAX multiplication at 0.1 ppm with 436 nm blue light irradiation by Western blot analysis; type: functional, cell-based
HeLa [26] = assay: Phototoxicity in human HeLa cells assessed as cell damage at 0.2 ppm pre-irradiated with 546 nm green light followed by 436 nm blue light irradiation; type: functional, cell-based
HeLa [27] = assay: Phototoxicity in human HeLa cells assessed as cell damage at 0.2 ppm irradiated with 546 nm green light; type: functional, cell-based

Structure (SMILES): CC12C=C(c3ccccc3)SC1=C1C(=C3SC(c4ccccc4)=NC32C)C(F)(F)C(F)(F)C1(F)F (stereo not given)
Activity (HeLa [5]): Active

Structure (SMILES): CC12C=C(c3ccccc3)SC1=C1C(=C3SC(c4ccccc4)=CC32C)C(F)(F)C(F)(F)C1(F)F (stereo not given)
Activity (HeLa [5]): Active

Structure (SMILES): Cc1nc(-c2ccccc2)sc1C1=C(c2sc(-c3ccccc3)nc2C)C(F)(F)C(F)(F)C1(F)F
Activity (HeLa [6]): inactive

Structure (SMILES): Cc1cc(-c2ccccc2)sc1C1=C(c2sc(-c3ccccc3)nc2C)C(F)(F)C(F)(F)C1(F)F
Activity (HeLa [6]): inactive

Structure (SMILES): Cc1cc(-c2ccccc2)sc1C1=C(c2sc(-c3ccccc3)cc2C)C(F)(F)C(F)(F)C1(F)F
Activity (HeLa [6]): inactive

Structure (SMILES): CC12N=C(c3ccccc3)SC1=C1C(=C3SC(c4ccccc4)=NC32C)C(F)(F)C(F)(F)C1(F)F (stereo not given)
Activity (HeLa [5]): Active

More lines, main results first:

Activity (DNA [2]): inactive
Activity (DNA [3]): Active
KSV (DNA [4]): 1.6 10^3/M
Structure (SMILES): Cc1sc(-c2ccccc2)cc1C1=C(c2cc(-c3ccccc3)sc2C)C(F)(F)C(F)(F)C1(F)F
Activity (HeLa [1]): inactive

Activity (DNA [2]): Active
Activity (DNA [3]): Active
KSV (DNA [4]): 1.6 10^3/M
Structure (SMILES): Cc1sc(-c2ccccc2)cc1C1=C(c2nc(-c3ccccc3)sc2C)C(F)(F)C(F)(F)C1(F)F

Activity (DNA [2]): inactive
Activity (DNA [3]): Active
KSV (DNA [4]): 27 10^3/M
Structure (SMILES): CC12SC(c3ccccc3)=CC1=C1C(=C3C=C(c4ccccc4)SC32C)C(F)(F)C(F)(F)C1(F)F (stereo not given)
Activity (HeLa [1]): inactive

Activity (DNA [2]): Active
Activity (DNA [3]): Active
Activity (DNA [12]): Active
Activity (DNA [13]): Active
Activity (DNA [14]): inactive
KSV (DNA [4]): 1.6 10^3/M
Structure (SMILES): Cc1sc(-c2ccccc2)nc1C1=C(c2nc(-c3ccccc3)sc2C)C(F)(F)C(F)(F)C1(F)F
Activity (HeLa [1]): inactive
Activity (HeLa [7]): inactive
Activity (HeLa [8]): inactive
Activity (HeLa [9]): inactive
Activity (HeLa [10]): inactive
Activity (HeLa [11]): inactive
Activity (HeLa [15]): inactive

Activity (DNA [2]): Active
Activity (DNA [3]): Active
KSV (DNA [4]): 27 10^3/M
Structure (SMILES): C[C@]12SC(c3ccccc3)=CC1=C1C(=C3N=C(c4ccccc4)S[C@@]32C)C(F)(F)C(F)(F)C1(F)F
Activity (HeLa [1]): Active

Activity (DNA [2]): Active
Activity (DNA [3]): Active
KSV (DNA [4]): 27 10^3/M
Structure (SMILES): CC12SC(c3ccccc3)=NC1=C1C(=C3N=C(c4ccccc4)SC32C)C(F)(F)C(F)(F)C1(F)F (stereo not given)
Activity (HeLa [1]): Active
Activity (HeLa [16]): Active
Activity (HeLa [17]): Active
Activity (HeLa [18]): Active
Activity (HeLa [19]): Active
Activity (HeLa [20]): Active
Activity (HeLa [21]): Active
Activity (HeLa [22]): Active
Activity (HeLa [23]): Active
Activity (HeLa [24]): Active
Activity (HeLa [25]): Active
Activity (HeLa [26]): Active
Activity (HeLa [27]): Active
